Where two headings read alike, the source gives them in different places. Marks after values point to notes of the source that are not given here.

Assay [1] concerns the target T1, KOR (Homo sapiens, UniProt P41145). Description: High content imaging based β-arrestin translocation assay, KOR agonist (KOR HCS). As to conditions: n = 2, read-out: Average Potency KOR HCS. It counts as cell-based. An excerpt:
(§1) In this campaign, two assay platforms were employed to evaluate KOR activity and selectivity: the KOR1 DISCOVERX β-Arrestin […] assay and an imaging based β-arrestin translocation assay for confirmatory and selectivity assays. The KOR1 DISCOVERX β-Arrestin […] assay is a commercial platform for direct measurement of GPCR (G protein-coupled receptor) activation by detection of β-Arrestin binding to the KOR. […] In cells that stably express these fusion proteins, ligand stimulation results in the recruitment of β-Arrestin by the GPCR. This interaction encourages the complementation of the two β-galactosidase fragments resulting in the formation of a functional enzyme that converts substrate in the assay medium to a detectable signal. The imaging based high-content β-arrestin translocation assay is based upon the redistribution of β-Arrestin linked to green fluorescent protein (GFP) to the cell surface and detection (Barak, et al. (1997) J. Biol. Chem. 272:27497-27500).
(§2) Initially, a portion (approximately 290,000 compounds) of the MLSMR compound collection was tested in the KOR1 DISCOVERX β-arrestin primary kappa opioid (KOP) agonist and antagonist screens (PUBCHEM AID 1777 and 1778, respectively) at a single concentration point (10 μM). […] These compounds were concurrently tested in a β-galactosidase counterscreen assay (PUBCHEM AID 1966) to assess the possibility that these compounds might inhibit the reporting enzyme. […] The KOR:DOR:MOR selectivity of the compounds was determined using the analogous β-arrestin translocation assays for the DOR (PUBCHEM AID 2370 and 2357, for agonists and antagonist, respectively) and the MOR (PUBCHEM AID 2352 and 2420, for agonists and antagonists, respectively).

The target in assay [2] is T1, KOR. Nature of the assay: Binding affinity Ki of Table 9.
Assay [3] deals with T1, KOR. Nature of the assay: DISCOVERX β-arrestin […] assay, agonist mode (KOR DRx). Particulars: for EC50: agonist, n = 3, read-out: Average Potency KOR DRx; for Emax (%): at highest concentration tested, compared to dynorphin A (Emax=100%). The format is cell-based.
Excerpt: as §1, with “signal.” for “signal. The imaging based high-content β-arrestin translocation assay is based upon the redistribution of β-Arrestin linked to green fluorescent protein (GFP) to the cell surface and detection (Barak, et al. (1997) J. Biol. Chem. 272:27497-27500).”

The target in assay [4] is T2, MOR (Homo sapiens, UniProt P35372). Nature of the assay: High content imaging based β-arrestin translocation assay, MOR agonist (MOR HCS). The format is cell-based. As to conditions: n = 2, read-out: Average Potency MOR HCS.
T2 sequence (P35372 whole entry): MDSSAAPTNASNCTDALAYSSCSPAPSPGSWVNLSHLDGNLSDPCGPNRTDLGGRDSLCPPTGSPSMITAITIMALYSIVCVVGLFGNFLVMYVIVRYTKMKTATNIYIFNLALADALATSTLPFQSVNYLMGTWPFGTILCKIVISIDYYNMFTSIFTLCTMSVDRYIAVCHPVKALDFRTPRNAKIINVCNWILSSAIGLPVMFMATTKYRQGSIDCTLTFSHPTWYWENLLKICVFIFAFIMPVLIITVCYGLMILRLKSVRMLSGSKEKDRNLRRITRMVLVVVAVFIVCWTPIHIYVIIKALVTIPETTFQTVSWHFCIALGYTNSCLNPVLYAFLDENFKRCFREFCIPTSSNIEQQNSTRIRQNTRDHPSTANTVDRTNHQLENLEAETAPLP
Excerpt: as §1, §2

Assay [5] concerns the target T1, KOR. Description: KOR1 DISCOVERX β-Arrestin […] assay, antagonist mode (KOR DRX). It counts as cell-based. Particulars: antagonist; average; read-out: Potency, Target KOR DRX.
Excerpt: as §1, §2

Assay [6] deals with T1, KOR. Nature of the assay: High content imaging β-arrestin translocation assay, KOR antagonist (KOR HCS). The format is cell-based. Particulars: antagonist; average; read-out: Potency, Target KOR HCS.
Excerpt: as §1, §2

The target in assay [7] is T2, MOR. Nature of the assay: High content imaging β-arrestin translocation assay, MOR antagonist (MOR HCS). It counts as cell-based.
Excerpt: as §1, §2

Assay [8] has as its target T3, KOP receptor (Homo sapiens, UniProt P41145). Nature of the assay: 35S-GTPγS coupling, inhibition. It counts as biochemical. Background: GTPγS is a poorly hydrolysed GTP analogue; its binding reports G protein activation.
Assay [9] addresses DOR (Homo sapiens, UniProt P41143). Nature of the assay: High content imaging β-arrestin translocation assay, DOR antagonist (DOR HCS). The format is cell-based.
Excerpt: as §1, §2

Assay [10] concerns the target T3, KOP receptor. Nature of the assay: ERK 1/2 activation, inhibition. The format is cell-based.

T3 sequence (P41145 whole entry): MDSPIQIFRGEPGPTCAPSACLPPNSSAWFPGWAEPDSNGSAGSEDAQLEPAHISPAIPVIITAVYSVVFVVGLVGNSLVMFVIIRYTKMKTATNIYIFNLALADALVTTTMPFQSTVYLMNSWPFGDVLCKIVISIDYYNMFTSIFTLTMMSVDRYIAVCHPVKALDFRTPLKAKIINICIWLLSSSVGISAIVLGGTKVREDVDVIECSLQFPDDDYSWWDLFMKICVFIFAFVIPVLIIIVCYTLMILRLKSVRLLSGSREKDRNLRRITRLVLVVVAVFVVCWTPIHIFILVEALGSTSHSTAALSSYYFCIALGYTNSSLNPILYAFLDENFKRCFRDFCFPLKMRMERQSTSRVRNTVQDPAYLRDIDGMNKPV
T1 sequence (P41145 whole entry, the tested form may be a part): as the sequence (P41145 whole entry) above
DOR, sequence (P41143 whole entry): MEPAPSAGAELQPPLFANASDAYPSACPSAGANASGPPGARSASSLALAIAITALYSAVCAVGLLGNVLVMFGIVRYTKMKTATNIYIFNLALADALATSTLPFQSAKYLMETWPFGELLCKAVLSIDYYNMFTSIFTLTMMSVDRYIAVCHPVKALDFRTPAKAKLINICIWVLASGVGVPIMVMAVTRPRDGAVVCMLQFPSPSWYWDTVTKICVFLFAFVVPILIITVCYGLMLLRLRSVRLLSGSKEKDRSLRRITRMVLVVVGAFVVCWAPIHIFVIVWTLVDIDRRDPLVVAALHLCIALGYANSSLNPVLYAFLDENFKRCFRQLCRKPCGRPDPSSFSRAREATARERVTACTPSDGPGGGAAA

As usually defined, the Ki is a dissociation constant, usually derived from enzyme kinetics or from competition with a known ligand. Low values mean tighter binding, high ones weaker binding. For the compound `Fc1cccc(F)c1CSc1nnc(-c2ccccn2)n1Cc1ccco1` [2{41}], the EC50 in assay [1] was more than 32 µM; in [3] it was more than 20 µM; in assay [4], more than 32 µM. The compound also registered a Ki in [2] of 55 nM.

Consider `COc1ccc(N2CCN(CCCNC(=O)Cn3c(=O)c4cccn4c4ccccc43)CC2)cc1` [Compound 1{1}], for which the IC50 in [5] was 1970 nM; in [6] it was 1.31 µM; in [7] it was more than 32 µM; in assay [8] (n ≧ 3 curves in duplicate), 95.7 ± 48 nM; in assay [9], more than 32 µM; in [10] (n ≧ 3 curves, replicates of 6) it was 65 ± 9.2 nM. Besides, the “Imax (% NBNI)” value in assay [8] is on record as 122 ± 5^a % NBNI; in [10] it was 101 ± 3^ % NBNI.

Take `O=C(Cn1c(=O)c2cccn2c2cccnc21)NCCCN1CCN(Cc2ccccc2)CC1` [Compound 1{23}]: the IC50 was more than 20000 nM in [5]; 21.5 µM in [6]; more than 32 µM in assay [7] (antagonist, average, read-out: Potency, Antitarget MOR HCS); more than 32 µM in assay [9] (antagonist, average, read-out: Potency, Antitarget DOR HCS).

As for `FC(F)(F)c1cc(CSc2nnc(-c3ccccn3)n2Cc2cccs2)ccc1Cl` [Compound 2{11}], the EC50 in assay [1] is 1.4 µM; in assay [3], 0.43 µM; in assay [4] it was more than 32 µM. Also, in assay [2], the Ki is 3 nM. Besides, in assay [3], the “Emax (%)” value is given as approximately 109%.

Regarding `Cc1ccc(CSc2nnc(-c3ccccn3)n2Cc2ccco2)cc1` [Compound 2{12}], the EC50 is 5.21 µM in assay [1], 6.2 ± 1.26 µM in assay [3] and more than 32 µM in [4]. In assay [2], this compound yielded a Ki of 16 nM. Besides, the “Emax (%)” value in assay [3] is given as approximately 150%.

Regarding `Fc1cc(F)cc(CSc2nnc(-c3ccccn3)n2Cc2cccs2)c1` [Compound 2{17}], the EC50 in assay [1] was more than 17.8 µM; in [3], 7.2 µM; in [4], more than 32 µM. In addition, the Ki in assay [2] was determined as 94 nM. In [3], the “Emax (%)” value was approximately 150%.

As to `COc1ccc(CSc2nnc(-c3ccccn3)n2Cc2ccco2)cc1` [Compound 2{20}], the values for the EC50 in assay [1], in assay [3] and in assay [4] were 12.4 µM, 7.7 ± 1.47 µM and more than 32 µM, respectively. Besides, in [2], the Ki stood at 28 nM. In addition, the “Emax (%)” value in assay [3] is reported as approximately 150%.

As for `COc1ccc(CSc2nnc(-c3ccccn3)n2Cc2cccs2)cc1` [Compound 2{21}], the results for the EC50 in assay [1], in assay [3] and in [4] were 5.98 µM, 9.62 ± 1.32 µM and more than 32 µM, respectively. Moreover, in assay [2], affinity was put at a Ki of 7.1 nM. Moreover, the “Emax (%)” value in [3] is listed as approximately 130%.

`c1ccc(CSc2nnc(-c3ccccn3)n2Cc2ccco2)cc1` [Compound 2{22}]: the EC50 in [1] was more than 32 µM; in assay [3] it was more than 17.9 µM; in assay [4], more than 32 µM. Also, the Ki in assay [2] was 155 nM. In addition, in assay [3], the “Emax (%)” value is recorded as “Emax not reached”.

For the compound `c1ccc(CSc2nnc(-c3ccccn3)n2Cc2cccs2)cc1` [Compound 2{23}], the EC50 in [1] is 23.5 µM; in assay [3], 13.8 ± 1.18 µM; in [4], more than 32 µM. Also, the Ki in [2] was found to be 138 nM. Moreover, the “Emax (%)” value in [3] was approximately 150%.

With `CC(C)c1ccc(CSc2nnc(-c3ccccn3)n2Cc2cccs2)cc1` [Compound 2{34}], the EC50 in assay [1] is 2.2 µM; in assay [3], 3.66 µM; in [4], more than 32 µM. In [2], this compound returned a Ki of 2.3 nM. The “Emax (%)” value in assay [3] was approximately 100%.

In the case of `Cc1ccccc1CSc1nnc(-c2ccccn2)n1Cc1ccco1` [Compound 2{35}], the EC50 is more than 30 µM in [1], more than 18.8 µM in assay [3] and more than 32 µM in assay [4]. Further, in assay [2], the Ki is 123 nM.

For `Cc1ccccc1CSc1nnc(-c2ccccn2)n1Cc1cccs1` [Compound 2{36}], the EC50 in [1] is 14.5 µM; in assay [3], more than 16 µM; in assay [4], more than 32 µM. The compound also yielded a Ki in [2] of 68 nM.

With `COc1cccc(CSc2nnc(-c3ccccn3)n2Cc2ccco2)c1` [Compound 2{37}], the values for the EC50 in [1], in assay [3] and in [4] were more than 32 µM, more than 17.6 µM and more than 32 µM, respectively. This compound also showed a Ki in assay [2] of 67 nM.

As to `Fc1cccc(F)c1CSc1nnc(-c2ccccn2)n1Cc1cccs1` [Compound 2{42}], the results for the EC50 in [1], in assay [3] and in assay [4] were 20.9 µM, more than 19 µM and more than 32 µM, respectively. The same compound gave a Ki in assay [2] of 78 nM.

For `Clc1ccccc1CSc1nnc(-c2ccccn2)n1Cc1ccco1` [Compound 2{47}], the EC50 in assay [1] is 11.6 µM; in assay [3], 9.07 µM; in assay [4] it was more than 32 µM. This compound had a Ki in assay [2] of 106 nM.

The values above are taken from patent US9345703B2, “Kappa opioid receptor effectors and uses thereof” (University of Kansas, priority 2011, dated 2016).
